According to US7371207B2 (Wyeth, priority 2002, dated 2008):

Tested on: gene expression in the kidney
Experiment: GeneChip microarray survey of E2 regulated gene expression, kidney
Conditions: for E2: Study 2 ERbKO; for Study 1 E2 Expr (/evansm/Kidney, mouse/Study 1, U74v2/KO E2 kidney (81038)) / E2 Expr (/evansm/Kidney, mouse/Study 2, U74v2/ER bKO kidney E2 (82412)): ERbKO
Description: FIG. 1 depicts a pattern analysis generated by a GeneChip microarray analysis. […] Two hours following the final dose, the mice were euthanized and 13 tissues removed for RNA preparation. Two independent studies were performed, with total RNA pooled from two groups of three animals for each condition. Gene expression was quantified by GeneChip microarrays using murine U74 sub A arrays. Data were analyzed for patterns indicating either ERα or ERβ dependent regulation as shown. […] The number of genes in each tissue that matched the theoretical induction (↑) or repression (↓) patterns for ERα or ERβ are indicated.
FIGS. 2A-2C show a series of bar graphs showing gene expression levels of known genes regulated in the kidney in an ERα pattern. […] Expression was measured in two independent sets of animals, with two groups of animals for each treatment in each study. A gene name abbreviation is shown above each graph, with the corresponding Unigene designation shown below.
One week later, the animals were ovariectomized.
GeneChip—Total RNA was prepared separately from each individual organ by using Trizol (Invitrogen) followed by subsequent repurification on Rneasy columns (Qiagen). In general, two pools of RNA were created using equal amounts of RNA from three mice. For small organs such as pituitary, an equal amount of RNA from six animals was combined.
Target Preparation and Array Hybridization—Total RNA was used to generate biotin labeled cRNA target as described (8) which was hybridized to the murine MG_U74Av2 probe arrays (Affymetrix, Santa Clara, Calif.) for 16 h at 45° C. Eleven biotin-labeled cRNAs at defined concentration were spiked into each hybridization and used to convert average difference values to frequencies expressed as parts per million.
The resulting data set was queried for genes whose regulation was dependent on ERα or ERβ.

[1] = 1st line of INDUCTIONS (by order 100060_l_at, kallikrein 8)
[2] = 2nd line of INDUCTIONS (by order 100061_f_at, kallikrein 8)
[3] = 3rd line of INDUCTIONS (by order 95775_f_at, kallikrein 1)
[4] = 4th line of INDUCTIONS (by order 104495_f_at, kallikrein 5)
[5] = 5th line of INDUCTIONS (by order 94716_f_at, kallikrein 9)
[6] = 6th line of INDUCTIONS (by order 100422_f_at, signal transducer and activator of transcription 5A)
[7] = 7th line of INDUCTIONS (by order 100423_f_at, signal transducer and activator of transcription 5A)
[8] = 8th line of INDUCTIONS (by order 101289_f_at, M17979)

Compound: C[C@]12CC[C@@H]3c4ccc(O)cc4CC[C@H]3[C@@H]1CC[C@@H]2O [E2, 17β-estradiol]
- E2 [1]: 37
- Study 1 E2 Expr (/evansm/Kidney, mouse/Study 1, U74v2/KO E2 kidney (81038)) [1]: 37
- E2 Expr (/evansm/Kidney, mouse/Study 2, U74v2/ER bKO kidney E2 (82412)) [1]: 44
- E2 Expr (/evansm/Kidney, mouse/Study 2, U74v2/WT kidney E2 (82408)) [1]: 40
- E2 Expr (/evansm/Kidney, mouse/Study 2, U74v2/WT kidney E2 (82409)) [1]: 31
- E2 [2]: 297
- Study 1 E2 Expr (/evansm/Kidney, mouse/Study 1, U74v2/KO E2 kidney (81038)) [2]: 370
- E2 Expr (/evansm/Kidney, mouse/Study 2, U74v2/ER bKO kidney E2 (82412)) [2]: 359
- E2 Expr (/evansm/Kidney, mouse/Study 2, U74v2/WT kidney E2 (82408)) [2]: 338
- E2 Expr (/evansm/Kidney, mouse/Study 2, U74v2/WT kidney E2 (82409)) [2]: 201
- E2 [3]: 291
- Study 1 E2 Expr (/evansm/Kidney, mouse/Study 1, U74v2/KO E2 kidney (81038)) [3]: 333
- E2 Expr (/evansm/Kidney, mouse/Study 2, U74v2/ER bKO kidney E2 (82412)) [3]: 361
- E2 Expr (/evansm/Kidney, mouse/Study 2, U74v2/WT kidney E2 (82408)) [3]: 345
- E2 Expr (/evansm/Kidney, mouse/Study 2, U74v2/WT kidney E2 (82409)) [3]: 234
- E2 [4]: 130
- Study 1 E2 Expr (/evansm/Kidney, mouse/Study 1, U74v2/KO E2 kidney (81038)) [4]: 125
- E2 Expr (/evansm/Kidney, mouse/Study 2, U74v2/ER bKO kidney E2 (82412)) [4]: 163
- E2 Expr (/evansm/Kidney, mouse/Study 2, U74v2/WT kidney E2 (82408)) [4]: 145
- E2 Expr (/evansm/Kidney, mouse/Study 2, U74v2/WT kidney E2 (82409)) [4]: 89
- E2 [5]: 302
- Study 1 E2 Expr (/evansm/Kidney, mouse/Study 1, U74v2/KO E2 kidney (81038)) [5]: 372
- E2 Expr (/evansm/Kidney, mouse/Study 2, U74v2/ER bKO kidney E2 (82412)) [5]: 369
- E2 Expr (/evansm/Kidney, mouse/Study 2, U74v2/WT kidney E2 (82408)) [5]: 329
- E2 Expr (/evansm/Kidney, mouse/Study 2, U74v2/WT kidney E2 (82409)) [5]: 230
- E2 [6]: 92
- Study 1 E2 Expr (/evansm/Kidney, mouse/Study 1, U74v2/KO E2 kidney (81038)) [6]: 70
- E2 Expr (/evansm/Kidney, mouse/Study 2, U74v2/ER bKO kidney E2 (82412)) [6]: 104
- E2 Expr (/evansm/Kidney, mouse/Study 2, U74v2/WT kidney E2 (82408)) [6]: 104
- E2 Expr (/evansm/Kidney, mouse/Study 2, U74v2/WT kidney E2 (82409)) [6]: 73
- E2 [7]: 72
- Study 1 E2 Expr (/evansm/Kidney, mouse/Study 1, U74v2/KO E2 kidney (81038)) [7]: 61
- E2 Expr (/evansm/Kidney, mouse/Study 2, U74v2/ER bKO kidney E2 (82412)) [7]: 58
- E2 Expr (/evansm/Kidney, mouse/Study 2, U74v2/WT kidney E2 (82408)) [7]: 80
- E2 Expr (/evansm/Kidney, mouse/Study 2, U74v2/WT kidney E2 (82409)) [7]: 44
- E2 [8]: 236
- Study 1 E2 Expr (/evansm/Kidney, mouse/Study 1, U74v2/KO E2 kidney (81038)) [8]: 282
- E2 Expr (/evansm/Kidney, mouse/Study 2, U74v2/ER bKO kidney E2 (82412)) [8]: 295
- E2 Expr (/evansm/Kidney, mouse/Study 2, U74v2/WT kidney E2 (82408)) [8]: 264
- E2 Expr (/evansm/Kidney, mouse/Study 2, U74v2/WT kidney E2 (82409)) [8]: 178
- E2 Expr (/evansm/Kidney, mouse/Study 1, U74v2/WT E2 kidney (81036)) (92232_at, U88328, cytokine inducible SH-2 containing protein 3): 45
- E2 Expr (/evansm/Kidney, mouse/Study 1, U74v2/WT E2 kidney (81036)) (93104_at, Z16410, B-cell translocation gene 1, anti-proliferative): 14
- E2 Expr (/evansm/Kidney, mouse/Study 1, U74v2/WT E2 kidney (81036)) (93374_at, AI836349, junctophilin 3): 65
- E2 Expr (/evansm/Kidney, mouse/Study 1, U74v2/WT E2 kidney (81036)) (94694_at, M69196, proprotein convertase subtillsin/kexin type 1): 27
- E2 Expr (/evansm/Kidney, mouse/Study 1, U74v2/WT E2 kidney (81036)) (94716_f_at, M17962, kallikrein 9): 380
- E2 Expr (/evansm/Kidney, mouse/Study 1, U74v2/WT E2 kidney (81036)) (94773_at, X01801, nerve growth factor, alpha): 53
- E2 Expr (/evansm/Kidney, mouse/Study 1, U74v2/WT E2 kidney (81036)) (95559_at, AI838836, RIKEN cDNA 6330403K07 gene): 74
- E2 Expr (/evansm/Kidney, mouse/Study 1, U74v2/WT E2 kidney (81036)) (95775_f_at, V00829, kallikrein 1): 370
- E2 Expr (/evansm/Kidney, mouse/Study 1, U74v2/WT E2 kidney (81036)) (95905_at, AI118078, Mm.24361): 83
- E2 Expr (/evansm/Kidney, mouse/Study 1, U74v2/WT E2 kidney (81036)) (96215_f_at, AI53421, Mm.218360): 206
- E2 Expr (/evansm/Kidney, mouse/Study 1, U74v2/WT E2 kidney (81036)) (96591_at, U24703, reelin): 43
- E2 Expr (/evansm/Kidney, mouse/Study 1, U74v2/WT E2 kidney (81036)) (96629_at, X04097, similar to TESTOSTERONE-REGULATED RP2 PROTEIN): 55
- E2 Expr (/evansm/Kidney, mouse/Study 1, U74v2/WT E2 kidney (81036)) (97353_at, AI837497, AF9Q34 NGAP-like protein): 29
- E2 Expr (/evansm/Kidney, mouse/Study 1, U74v2/WT E2 kidney (81036)) (97519_at, X13986, secreted phosphoprotein 1): 178
- E2 Expr (/evansm/Kidney, mouse/Study 1, U74v2/WT E2 kidney (81036)) (97520_s_at, X83569, neuroatin): 157
- E2 Expr (/evansm/Kidney, mouse/Study 1, U74v2/WT E2 kidney (81036)) (98055_at, AW121500, bladder cancer associated protein homolog (human)): 14
- E2 Expr (/evansm/Kidney, mouse/Study 1, U74v2/WT E2 kidney (81036)) (98437_at, U83720, caspase 3, apoptosis related cysteine protease): 39
- E2 Expr (/evansm/Kidney, mouse/Study 1, U74v2/WT E2 kidney (81036)) (98628_f_at, AF003695, hypoxia inducible factor 1, alpha subunit): 288
- E2 Expr (/evansm/Kidney, mouse/Study 1, U74v2/WT E2 kidney (81036)) (99057_at, M12379, thymus cell antigen 1, theta): 57
- E2 Expr (/evansm/Kidney, mouse/Study 1, U74v2/WT E2 kidney (81036)) (99127_at, X61506, spinocerebellar ataxia 10 homolog (human)): 66
- E2 Expr (/evansm/Kidney, mouse/Study 1, U74v2/WT E2 kidney (81036)) (99552_at, U79550, slug, chicken homolog): 19
- E2 Expr (/evansm/Kidney, mouse/Study 1, U74v2/WT E2 kidney (81036)) (99632_at, U83902, MAD2 (mitotic arrest deficient, homolog)-like 1 (yeast)): 27
- E2 Expr (/evansm/Kidney, mouse/Study 1, U74v2/WT E2 kidney (81036)) (100060_l_at, M13500, kallikrein 8): 39
- E2 Expr (/evansm/Kidney, mouse/Study 1, U74v2/WT E2 kidney (81036)) (100061_f_at, M13500, kallikrein 8): 341
- E2 Expr (/evansm/Kidney, mouse/Study 1, U74v2/WT E2 kidney (81036)) (100407_at, L38580, galanin): 98
- E2 Expr (/evansm/Kidney, mouse/Study 1, U74v2/WT E2 kidney (81036)) (100422_f_at, AJ237939, signal transducer and activator of transcription 5A): 151
- E2 Expr (/evansm/Kidney, mouse/Study 1, U74v2/WT E2 kidney (81036)) (100423_f_at, AJ237939, signal transducer and activator of transcription 5A): 96
- E2 Expr (/evansm/Kidney, mouse/Study 1, U74v2/WT E2 kidney (81036)) (100440_f_at, U76758, ankyrin 1, erythroid): 119
- E2 Expr (/evansm/Kidney, mouse/Study 1, U74v2/WT E2 kidney (81036)) (100539_at, AI841279, ?HBACH Cytosolic acyl coenzyme A thioester hydrolase): 16
- E2 Expr (/evansm/Kidney, mouse/Study 1, U74v2/WT E2 kidney (81036)) (100681_f_at, V00829): 123
- E2 Expr (/evansm/Kidney, mouse/Study 1, U74v2/WT E2 kidney (81036)) (100719_f_at, J03677, kallikrein 16): 119
- E2 Expr (/evansm/Kidney, mouse/Study 1, U74v2/WT E2 kidney (81036)) (101289_f_at, M17979): 305
- E2 Expr (/evansm/Kidney, mouse/Study 1, U74v2/WT E2 kidney (81036)) (101737_at, U12932, follicle stimulating hormone beta): 19
- E2 Expr (/evansm/Kidney, mouse/Study 1, U74v2/WT E2 kidney (81036)) (101738_at, U25145, tutetnizing hormone beta): 578
- E2 Expr (/evansm/Kidney, mouse/Study 1, U74v2/WT E2 kidney (81036)) (101870_at, V00793): 21
